The values that follow come from patent publication US10196369B2, “Spirocyclic EBI2 modulators” (Sanford Burnham Prebys Medical Discovery Institute, priority 2013, dated 2019).

Where only a bound is given, the exact number is not on record here.

Usually IC50 stands for the concentration that gives 50% inhibition. Low values mean greater potency, high ones weaker potency.

Sequence of EBI2 (P32249 whole entry): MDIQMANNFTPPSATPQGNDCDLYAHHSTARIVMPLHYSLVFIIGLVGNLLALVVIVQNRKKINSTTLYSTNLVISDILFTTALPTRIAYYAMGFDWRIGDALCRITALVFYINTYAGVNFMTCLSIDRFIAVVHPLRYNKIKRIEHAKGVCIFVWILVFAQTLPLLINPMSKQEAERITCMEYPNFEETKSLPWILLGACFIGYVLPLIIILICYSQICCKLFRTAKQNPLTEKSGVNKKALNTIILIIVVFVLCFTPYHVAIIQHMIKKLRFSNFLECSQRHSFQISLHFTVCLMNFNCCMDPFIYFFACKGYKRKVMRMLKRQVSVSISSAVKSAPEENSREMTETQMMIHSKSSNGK

This experiment concerns the target EBI2 (Homo sapiens, UniProt P32249). As to the kind of experiment: Cell-based luminescent assay of EBI2 modulation (7a,25-OHC stimulated). The following applies: 7a,25-OHC final assay concentration 80 nM, 60 minute incubation. The procedure:
To assess EBI2 modulation, the compounds described herein were assayed in the following cell-based luminescent assay:
1) Plated 600 cells/well in 4 μL of assay media into columns 1-48 of a 1536-well assay plate, using a liquid dispenser.
2) Centrifuged plates at 1000 rpm for 1 minute and covered with lids.
3) Incubated overnight at 37° C., 100% relative humidity, 5% CO2.
1) Centrifuged compound plates containing compounds described herein at 500 rpm for 1 minute.
2) Added compounds into assay plate col 5-48 to final concentration 4-5 uM. Added matching amount of DMSO to positive and negative control wells in columns 1-4.
3) Dispensed 2 uL/well of assay media to columns 1-2 for the positive control wells.
4) Added 2 uL/well of 400 nM 7a,25-OHC (final assay concentration=80 nM) in assay media to columns 3-48 for the negative control and test compound wells.
5) Centrifuged plates at 1000 rpm for 1 minute and re-lid plates.
6) Incubated plates at 37° C., 100% relative humidity, 5% CO2 for 60 minutes.
7) Following 60 minute incubation, delivered 2.5 uL of Detection Reagent solution to each assay plate (Columns 1-48) using a liquid handler.
8) Centrifuged plates at 2000 rpm for 2 minutes and re-lid plates.
9) Incubated plates for 60 minutes at 25 degrees in the dark.
10) Read plates using the Viewlux, Envision or other suitable plate reader using a luminescence detection.
The experimental values were normalized by the difference between values from neutral and stimulator control wells in each plate. Then normalized data was corrected to remove systematic plate patterns due to artifacts such as dispensing tip issues etc.
In turn, `O=C(/C=C/c1ccc(Br)cc1)N1CC2(CCN(Cc3ccc(F)cc3)CC2)C1` [Compound C25, (2E)-3-(4-bromophenyl)-1-{7-[(4-fluorophenyl)methyl]-2,7-diazaspiro[3.5]non-2-yl}prop-2-en-1-one] displayed an IC50 of 100 to 500 nM.
As for `O=C(/C=C/c1ccc(Br)cc1)N1CC2(CCN(Cc3ccc(Cl)cc3)CC2)C1` [Compound C26, (2E)-3-(4-bromophenyl)-1-{7-[(4-chlorophenyl)methyl]-2,7-diazaspiro[3.5]non-2-yl}prop-2-en-1-one], the figure is 100 to 500 nM; as for `O=C(/C=C/c1ccc(Br)cc1)N1CC2(CCN(Cc3ccc(F)c(C(F)(F)F)c3)CC2)C1` [Compound C27, (2E)-3-(4-bromophenyl)-1-(7-{[4-fluoro-3-(trifluoromethyl)phenyl]methyl}-2,7-diazaspiro[3.5]non-2-yl)prop-2-en-1-one], 100 to 500 nM; as for `O=C(/C=C/c1ccc(Cl)c(Cl)c1)N1CC2(CCN(C(=O)c3ccc(F)cc3)CC2)C1` [Compound C28, (2E)-3-(3,4-dichlorophenyl)-1-{7-[(4-fluorophenyl)carbonyl]-2,7-diazaspiro[3.5]non-2-yl}prop-2-en-1-one], below 100 nM.
As for `O=C(/C=C/c1ccc(Cl)c(Cl)c1)N1CC2(CCN(C(=O)c3ccc(Cl)cc3)CC2)C1` [Compound C29, (2E)-3-(3,4-dichlorophenyl)-1-{7-[(4-chlorophenyl)carbonyl]-2,7-diazaspiro[3.5]non-2-yl}prop-2-en-1-one], the figure is below 100 nM.
As for `O=C(/C=C/c1ccc(Cl)c(Cl)c1)N1CC2(CCN(C(=O)c3ccc(C(F)(F)F)cc3)CC2)C1` [Compound C30, (2E)-3-(3,4-dichlorophenyl)-1-(7-{[4-(trifluoromethyl)phenyl]carbonyl}-2,7-diazaspiro[3.5]non-2-yl)prop-2-en-1-one], the figure is below 100 nM; as for `O=C(/C=C/c1ccc(Cl)c(Cl)c1)N1CC2(CCN(C(=O)c3ccc(-c4nnn[nH]4)cc3)CC2)C1` [Compound C31, (2E)-3-(3,4-dichlorophenyl)-1-{7-[(4-(1H-1,2,3,4-tetraazol-5-yl)phenyl)carbonyl]-2,7-diazaspiro[3.5]non-2-yl}prop-2-en-1-one], 500 to 5000 nM.
`O=C(/C=C/c1ccc(Cl)c(Cl)c1)N1CC2(CCN(Cc3ccc(F)cc3)CC2)C1` [Compound C32, (2E)-3-(3,4-dichlorophenyl)-1-{7-[(4-fluorophenyl)methyl]-2,7-diazaspiro[3.5]non-2-yl}prop-2-en-1-one] yielded an IC50 of 100 to 500 nM.
As for `O=C(/C=C/c1ccc(Cl)c(Cl)c1)N1CC2(CCN(Cc3ccc(Cl)cc3)CC2)C1` [Compound C33, (2E)-3-(3,4-dichlorophenyl)-1-{7-[(4-chlorophenyl)methyl]-2,7-diazaspiro[3.5]non-2-yl}prop-2-en-1-one], the figure is 100 to 500 nM.
As for `O=C(/C=C/c1ccc(Cl)c(Cl)c1)N1CC2(CCN(Cc3ccc(C(F)(F)F)c(F)c3)CC2)C1` [Compound C34, (2E)-3-(3,4-dichlorophenyl)-1-(7-{[3-fluoro-4-(trifluoromethyl)phenyl]methyl}-2,7-diazaspiro[3.5]non-2-yl)prop-2-en-1-one], the figure is 100 to 500 nM; as for `O=C(/C=C/c1ccc(Cl)c(Cl)c1)N1CCC2(CC1)CN(C(=O)/C=C/c1ccc(Cl)c(Cl)c1)C2` [Compound C35, (2E)-1-{2-[(2E)-3-(3,4-dichlorophenyl)prop-2-enoyl]-2,7-diazaspiro[3.5]non-7-yl}-3-(3,4-dichlorophenyl)prop-2-en-1-one], below 100 nM; as for `O=C(c1cc2cc(Cl)ccc2[nH]1)N1CC2(CCN(Cc3ccc(OC(F)(F)F)cc3)CC2)C1` [Compound C36, 5-chloroindol-2-yl 7-{[4-(trifluoromethoxy)phenyl]methyl}-2,7-diazaspiro[3.5]non-2-yl ketone], 100 to 500 nM.
As for `O=C(c1ccc(B(O)O)cc1)N1CCC2(CC1)CN(C(=O)c1cc3cc(Cl)ccc3[nH]1)C2` [Compound C37, 4-(2-(5-chloro-1H-indole-2-carbonyl)-2,7-diazaspiro[3.5]nonane-7-carbonyl)phenylboronic acid], the figure is 100 to 500 nM; as for `O=C(c1ccc(F)cc1)N1CCC2(CC1)CN(C(=O)c1cc3cc(Cl)ccc3[nH]1)C2` [Compound C38, 5-chloroindol-2-yl 7-[(4-fluorophenyl)carbonyl]-2,7-diazaspiro[3.5]non-2-yl ketone], 100 to 500 nM.
For `O=C(c1ccc(C(F)(F)F)cc1)N1CCC2(CC1)CN(C(=O)c1cc3cc(Cl)ccc3[nH]1)C2` [Compound C39, 5-chloroindol-2-yl 7-{[4-(trifluoromethyl)phenyl]carbonyl}-2,7-diazaspiro[3.5]non-2-yl ketone], the IC50 was below 100 nM.
In turn, `O=C(c1ccc(Cl)cc1)N1CCC2(CC1)CN(C(=O)c1cc3cc(Cl)ccc3[nH]1)C2` [Compound C40, 5-chloroindol-2-yl 7-[(4-chlorophenyl)carbonyl]-2,7-diazaspiro[3.5]non-2-yl ketone] showed an IC50 below 100 nM.
As for `O=C(c1ccc(-c2nnn[nH]2)cc1)N1CCC2(CC1)CN(C(=O)c1cc3cc(Cl)ccc3[nH]1)C2` [Compound C42, 5-chloroindol-2-yl 7-[(4-(1H-1,2,3,4-tetraazol-5-yl)phenyl)carbonyl]-2,7-diazaspiro[3.5]non-2-yl ketone], the figure is 500 to 5000 nM; as for `N#Cc1ccc(C(=O)N2CCC3(CC2)CN(C(=O)/C=C/c2ccc(Br)cc2)C3)cc1F` [Compound C43, 4-({2-[(2E)-3-(4-bromophenyl)prop-2-enoyl]-2,7-diazaspiro[3.5]non-7-yl}carbonyl)-2-fluorobenzenecarbonitrile], below 100 nM; as for `O=C(/C=C/c1ccc(Br)cc1)N1CC2(CCN(C(=O)c3cc(F)cc(F)c3)CC2)C1` [Compound C44, (2E)-1-{7-[(3,5-difluorophenyl)carbonyl]-2,7-diazaspiro[3.5]non-2-yl}-3-(4-bromophenyl)prop-2-en-1-one], below 100 nM.
As for `O=C(/C=C/c1ccc(Br)cc1)N1CC2(CCN(C(=O)c3ccc(F)cc3C(F)(F)F)CC2)C1` [Compound C45, (2E)-3-(4-bromophenyl)-1-(7-{[4-fluoro-2-(trifluoromethyl)phenyl]carbonyl}-2,7-diazaspiro[3.5]non-2-yl)prop-2-en-1-one], the figure is below 100 nM; as for `O=C(c1ccc(Br)cc1)N1CCC2(CC1)CN(C(=O)c1cc3cc(Br)ccc3[nH]1)C2` [Compound C46, 5-bromoindol-2-yl 7-[(4-bromophenyl)carbonyl]-2,7-diazaspiro[3.5]non-2-yl ketone], below 100 nM.
In the case of `O=C(c1ccc(F)cc1)N1CCC2(CC1)CN(C(=O)c1cc3cc(Br)ccc3[nH]1)C2` [Compound C47, 5-bromoindol-2-yl 7-[(4-fluorophenyl)carbonyl]-2,7-diazaspiro[3.5]non-2-yl ketone], the IC50 lay within 100 to 500 nM.
As for `O=C(c1cc2cc(Br)ccc2[nH]1)N1CC2(CCN(C(=O)c3ccc(F)cc3C(F)(F)F)CC2)C1` [Compound C48, 5-bromoindol-2-yl 7-{[4-fluoro-2-(trifluoromethyl)phenyl]carbonyl}-2,7-diazaspiro[3.5]non-2-yl ketone], the figure is below 100 nM; as for `O=C(c1cc2cc(Br)ccc2[nH]1)N1CC2(CCN(Cc3ccc(Cl)cc3)CC2)C1` [Compound C49, 5-bromoindol-2-yl 7-[(4-chlorophenyl)methyl]-2,7-diazaspiro[3.5]non-2-yl ketone], 500 to 5000 nM.
